# According to paper PMC7203344, “Sirtuin 1 Inhibiting Thiocyanates (S1th)—A New Class of Isotype Selective Inhibitors of NAD^+ Dependent Lysine Deacetylases” (Frontiers in Oncology, 2020):
# What was measured:
# HDAC6 = target: T1, HDAC6 (Homo sapiens, UniProt Q9UBN7); test: Homogeneous ZMAL-based fluorescence assay for HDAC6; format: biochemical
# T1 sequence (Q9UBN7 1-1215): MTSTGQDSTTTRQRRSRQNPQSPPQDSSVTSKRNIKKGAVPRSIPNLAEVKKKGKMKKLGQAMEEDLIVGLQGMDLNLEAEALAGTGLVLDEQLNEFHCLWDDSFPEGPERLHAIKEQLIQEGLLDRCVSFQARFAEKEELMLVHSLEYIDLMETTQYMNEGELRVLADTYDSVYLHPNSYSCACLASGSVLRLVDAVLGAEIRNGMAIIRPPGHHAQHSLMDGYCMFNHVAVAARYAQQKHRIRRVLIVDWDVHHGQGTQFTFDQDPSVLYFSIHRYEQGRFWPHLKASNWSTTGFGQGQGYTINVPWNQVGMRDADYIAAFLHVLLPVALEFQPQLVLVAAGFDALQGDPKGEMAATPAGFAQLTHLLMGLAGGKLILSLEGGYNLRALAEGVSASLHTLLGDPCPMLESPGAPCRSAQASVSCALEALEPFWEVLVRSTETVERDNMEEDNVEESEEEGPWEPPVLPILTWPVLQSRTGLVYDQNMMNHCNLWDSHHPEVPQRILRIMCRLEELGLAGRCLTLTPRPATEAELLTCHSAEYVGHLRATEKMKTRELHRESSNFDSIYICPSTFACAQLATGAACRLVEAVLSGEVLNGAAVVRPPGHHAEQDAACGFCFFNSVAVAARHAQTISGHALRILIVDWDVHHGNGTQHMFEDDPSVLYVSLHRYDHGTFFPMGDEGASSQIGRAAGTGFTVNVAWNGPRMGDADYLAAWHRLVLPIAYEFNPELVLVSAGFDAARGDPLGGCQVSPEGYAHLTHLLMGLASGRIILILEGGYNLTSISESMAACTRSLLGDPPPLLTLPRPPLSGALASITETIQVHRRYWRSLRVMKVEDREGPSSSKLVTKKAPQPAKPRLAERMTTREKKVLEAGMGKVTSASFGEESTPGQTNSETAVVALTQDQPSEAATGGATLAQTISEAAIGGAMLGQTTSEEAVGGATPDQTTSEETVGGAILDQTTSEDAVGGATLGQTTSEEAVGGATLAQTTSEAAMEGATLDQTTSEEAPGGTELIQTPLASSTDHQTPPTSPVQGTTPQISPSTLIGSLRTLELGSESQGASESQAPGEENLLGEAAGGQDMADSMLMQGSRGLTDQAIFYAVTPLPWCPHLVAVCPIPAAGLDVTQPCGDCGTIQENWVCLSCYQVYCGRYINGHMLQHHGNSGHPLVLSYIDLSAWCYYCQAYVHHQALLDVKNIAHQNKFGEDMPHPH
# Procedure: The inhibition of HDAC1 and 6 by the S1th and PR-619 was determined via the ZMAL-assay according to the same general procedure described for sirtuins (2.2.1). 5 μL substrate (10.5 μM final assay concentration) were mixed with 3 μL of inhibitor in DMSO or DMSO and 10 μL of HDAC solution (concentration adjusted to 15–30% conversion) and filled up to 60 μL with assay buffer (50 mM Tris, 137 mM NaCl, 1 mM MgCl2, 2,7 mM KCl, 1 mg/ml BSA, pH = 8.0). The mixture was incubated at 37°C and 140 rpm for 1.5 h. For the stop solution Trichostatin A (3.3 μM) was used instead of nicotinamide. Fluorescence intensity was measured as described above. An enzyme free blank control and an AMC containing 100% control were performed as well and inhibition was calculated in % in relation to a DMSO control.
# MCF7 cells = test: Colony forming assay with MCF7 cells; format: cell-based, human; conditions: concentrations as for HeLa
# Procedure: For colony assays, 50 cells per well were seeded in 6-well plates and grown in the same conditions with the same drug concentrations as for the proliferation assays. In this case, the growth media containing the drugs was replaced every 48 h. After 7–10 days, when isolated colonies were formed, wells were washed with PBS, and cells were fixed with cold methanol for 5 min at RT. Cells were stained with crystal violet for 10 min at RT and washed with H2O. Images were acquired using iBright (Thermo Fisher Scientific, MA, USA). For quantification, cells of each well were resuspended in 10% glacial acetic acid to dissolve crystal violet whose levels were monitored by measuring absorbance at 590 nm. The experiment was performed in duplicates.
# [1] = Solubility as found in testing; format: physicochemical; conditions: compared with earlier hits such as S1th 7
SMILES,residual activity HDAC6 (HDAC6),inhibition at 100 µM (HDAC6) [%],colony forming capabilities of MCF7 cells (MCF7 cells),% inhibition @ 100 μM HDAC6 (HDAC6) [%],solubility (in words) [1]
"N#CSc1cc(SC#N)c(N)nc1N [PR-619, reference compound]",~ 50%,49,,,
N#CSc1cccc(NC(=O)[C@H]2CC=CC[C@H]2C(=O)O)c1 [S1th 10],,19,slightly decreased,29,
CCCCNC(=O)Nc1cccc(SC#N)c1 [S1th 11],,< 10,,,better soluble
COc1ccc(SC#N)cc1OCC(=O)N(CCC#N)CCC#N [S1th 12],,36,barely affected,,better soluble
N#CSc1cccc(NS(=O)(=O)c2ccc3c(c2)OCCO3)c1 [S1th 13],,29,significantly decreased,19,better soluble
